The assay concerns the target T1, gastrin receptor (Rattus norvegicus, UniProt P30553).
T1 construct: The stomach was excised and flushed with ca. 1 ml of unbuffered physiological saline solution; from tissue; host or cells: isolated whole stomach of immature rats (ca. 21 days old)
T1 sequence (P30553 1-452): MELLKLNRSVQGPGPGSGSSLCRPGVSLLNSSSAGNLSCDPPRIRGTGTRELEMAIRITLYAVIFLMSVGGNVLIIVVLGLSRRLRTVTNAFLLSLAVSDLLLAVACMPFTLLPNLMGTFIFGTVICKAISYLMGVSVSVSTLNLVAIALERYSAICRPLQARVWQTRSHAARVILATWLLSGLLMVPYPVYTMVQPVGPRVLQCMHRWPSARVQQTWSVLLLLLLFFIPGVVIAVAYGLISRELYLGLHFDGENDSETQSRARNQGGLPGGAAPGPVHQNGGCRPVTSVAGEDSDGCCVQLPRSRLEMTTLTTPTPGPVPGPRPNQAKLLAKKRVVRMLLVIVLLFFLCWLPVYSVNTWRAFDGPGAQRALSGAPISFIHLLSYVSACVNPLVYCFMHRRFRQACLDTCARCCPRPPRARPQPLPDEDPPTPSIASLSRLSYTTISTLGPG
The assay can be described thus: gastrin antagonist activity in immature rat stomach assay (pentagastrin dose-response, acid secretion). The settings on record: isolated immature rat stomach, cumulative pentagastrin dose-response curves; for Kb: read-out: Gastrin pKb (converted). How it is done: The compounds of the examples were also tested for gastrin antagonist activity in an immature rat stomach assay. The procedure was as follows:
The oesophagus of immature rats (33-50 g, ca. 21 days old) was ligated at the level of the cardiac sphincter and the duodenal sphincter was cannulated. The stomach was excised and flushed with ca. 1 ml of unbuffered physiological saline solution. The fundus was punctured and cannulated. A further 4-5 ml of unbuffered solution was flushed through the stomach to ensure the preparation was not leaking. The stomach was lowered into a jacketed organ bath containing 40 ml of buffered solution containing 3×10^−8 M 5-methylfurmethide, maintained at 37° and gassed vigorously with 95% O2/5% CO2. The stomach was continuously perfused at a rate of 1 ml min^−1 with unbuffered solution gassed with 100% O2 with the perfusate passing over an internally referenced pH-electrode fixed 12 cm above the stomach.
After 120 min of stabilisation the drugs were added directly to the serosal solution in the organ bath and after a further 60 min cumulative pentagastrin dose-response curves were started. Changes in acid secretion were monitored and the curves analysed according to Black et al., Br. J. Pharmacol., 1985, 86, 581.

Regarding `O=C(Nc1cccc(S(=O)(=O)O)c1)c1nc(C2CCCCC2)[nH]c1CCC12CC3CC(CC(C3)C1)C2` [Example 268, 3-{[5-(2-Adamantan-1-yl-ethyl)-2-cyclohexyl-1H-imidazole-4-carbonyl]-amino}-benzenesulfonic Acid], the Kb is 224 nM. On the same count and under the same terms, next, `O=C(O)C=Cc1cc(NC(=O)c2nc(C3CCCCC3)[nH]c2CCC23CC4CC(CC(C4)C2)C3)ccc1Cl` [Example 269, 3-(5-{[5-(2-Adamantan-1-yl-ethyl)-2-cyclohexyl-1H-imidazole-4-carbonyl]-amino}-2-chloro-phenyl)-acrylic Acid]: 933 nM; `O=C(O)Cc1c(F)ccc(NC(=O)c2nc(C3CCCCC3)[nH]c2CCC23CC4CC(CC(C4)C2)C3)c1F` [Example 270, (3-{[5-(2-Adamantan-1-yl-ethyl)-2-cyclohexyl-1H-imidazole-4-carbonyl]-amino}-2,6-difluoro-phenyl)-acetic Acid]: 195 nM; `O=C(O)CCc1cc(NC(=O)c2nc(C3CCCCC3)[nH]c2CCC23CC4CC(CC(C4)C2)C3)ccc1Cl` [Example 271, 3-(5-{[5-(2-Adamantan-1-yl-ethyl)-2-cyclohexyl-1H-imidazole-4-carbonyl]-amino)-2-chloro-phenyl)-propionic Acid]: 355 nM. On the same count and under the same terms, next, `C[C@H](NC(=O)c1cccc(NC(=O)c2nc(C3CCCCC3)[nH]c2CCC23CC4CC(CC(C4)C2)C3)c1)C(=O)O` [Example 272, (S)-2-(3-{[5-(2-Adamantan-1-yl-ethyl)-2-cyclohexyl-1H-imidazole-4-carbonyl]-amino}-benzoylamino)-propionic Acid]: 186 nM; `C[C@@H](NC(=O)c1cccc(NC(=O)c2nc(C3CCCCC3)[nH]c2CCC23CC4CC(CC(C4)C2)C3)c1)C(=O)O` [Example 273, (R)-2-(3-{[5-(2-Adamantan-1-yl-ethyl)-2-cyclohexyl-1H-imidazole-4-carbonyl]-amino}-benzoylamino)-propionic Acid]: 49 nM; `Cc1ccccc1-c1nc(CCC23CC4CC(CC(C4)C2)C3)c(C=Cc2cccc(C(=O)O)c2)n1C` [Example 276, 3-{2-[5-(2-Adamantan-1-yl-ethyl)-3-methyl-2-o-tolyl-3H-imidazol-4-yl]-vinyl}-benzoic Acid]: 1170 nM. Same read-out and setting: next, `Cc1ccccc1-c1nc(CCC23CC4CC(CC(C4)C2)C3)c(CCc2cccc(C(=O)O)c2)n1C` [Example 277, 3-{2-[5-(2-Adamantan-1-yl-ethyl)-3-methyl-2-o-tolyl-3H-imidazol-4-yl]-ethyl}-benzoic Acid]: 1000 nM. For `Cc1ccccc1-c1nc(CCc2cccc(C(=O)O)c2)c(CCC23CC4CC(CC(C4)C2)C3)n1C` [Example 278, 3-{2-[5-(2-Adamantan-1-yl-ethyl)-1-methyl-2-o-tolyl-1H-imidazol-4-yl]-ethyl}-benzoic Acid], the Kb was 64.6 nM.

Consider `Cc1ccccc1-c1nc(CNc2cccc(C(=O)O)c2)c(CCC23CC4CC(CC(C4)C2)C3)n1C` [Example 279, 3-{[5-(2-Adamantan-1-yl-ethyl)-1-methyl-2-o-tolyl-1H-imidazol-4-ylmethyl]-amino}-benzoic Acid], for which the Kb was 145 nM. Regarding `Cc1ccccc1-c1nc(CCc2cccc(C(=O)O)c2)c(CCC23CC4CC(CC(C4)C2)C3)[nH]1` [Example 280, 3-{2-[5-(2-Adamantan-1-yl-ethyl)-2-o-tolyl-1H-imidazol-4-yl]-ethyl}-benzoic Acid], the Kb was 1820 nM.

`Cc1ccccc1-c1nc(C(=O)Oc2cccc(C(=O)O)c2)c(CCC23CC4CC(CC(C4)C2)C3)[nH]1` [Example 281, 5-(2-Adamantan-1-yl-ethyl)-2-o-tolyl-1H-imidazole-4-carboxylic Acid 3-carboxy-phenyl Ester]: the Kb is 2090 nM. The same measure, in the same setting: the value for `O=C(O)c1cccc(OC(=O)c2nc(C3CCCCC3)[nH]c2CCC23CC4CC(CC(C4)C2)C3)c1` [Example 282, 5-(2-Adamantan-1-yl-ethyl)-2-cyclohexyl-1H-imidazole-4-carboxylic Acid 3-carboxy-phenyl Ester] was 708 nM; that for `O=C(O)CCc1ccc(NC(=O)c2nc(C3CCCCC3)[nH]c2CCC23CC4CC(CC(C4)C2)C3)cc1` [Example 283, 3-(4-{[5-(2-Adamantan-1-yl-ethyl)-2-cyclohexyl-1H-imidazole-4-carbonyl]-amino}-phenyl)-propionic Acid] was 1150 nM. Regarding `O=C(O)CCc1c(F)ccc(NC(=O)c2nc(C3CCCCC3)[nH]c2CCC23CC4CC(CC(C4)C2)C3)c1F` [Example 284, 3-(3-{[5-(2-Adamantan-1-yl-ethyl)-2-cyclohexyl-1H-imidazole-4-carbonyl]-amino}-2,6-difluoro-phenyl)-propionic Acid], the Kb is 97.7 nM. Same read-out and setting: next, `O=C(Nc1cccc(C(=O)N2CCC[C@H]2C(=O)O)c1)c1nc(C2CCCCC2)[nH]c1CCC12CC3CC(CC(C3)C1)C2` [Example 285, (S)-1-(3-{[5-(2-Adamantan-1-yl-ethyl)-2-cyclohexyl-1H-imidazole-4-carbonyl]-amino}-benzoyl)-pyrrolidine-2-carboxylic Acid]: 1000 nM; `O=C(NO)c1cccc(NC(=O)c2nc(C3CCCCC3)[nH]c2COC23CC4CC(CC(C4)C2)C3)c1` [Example 286, 5-(Adamantan-1-yloxymethyl)-2-cyclohexyl-1H-imidazole-4-carboxylic Acid (3-hydroxycarbamoyl-phenyl)-amide]: 26.9 nM. The same measure, in the same setting: the value for `O=C(Cc1cccc(NC(=O)c2nc(C3CCCCC3)[nH]c2COC23CC4CC(CC(C4)C2)C3)c1)NO` [Example 287, 5-(Adamantan-1-yloxymethyl)-2-cyclohexyl-1H-imidazole-4-carboxylic Acid (3-hydroxycarbamoylmethyl-phenyl)-amide] was 91.2 nM; that for `O=C(O)c1cccc(NC(=O)c2nc(C3C4C=CC3C=C4)[nH]c2COC23CC4CC(CC(C4)C2)C3)c1` (centres unmarked) [Example 288, 3-{[5-(Adamantan-1-yloxymethyl)-2-bicyclo[2.2.1]hepta-2,5-dien-7-yl-1H-imidazole-4-carbonyl]-amino}-benzoic Acid] was 13.2 nM. Regarding `Cc1ccc(NC(=O)c2nc([C@H]3CC4C=C[C@@H]3C4)[nH]c2COC23CC4CC(CC(C4)C2)C3)cc1C(=O)O` [Example 289, endo-5-{[5-(Adamantan-1-yloxymethyl)-2-((1S,2S)-bicyclo[2.2.1]hept-5-en-2-yl)-1H-imidazole-4-carbonyl]-amino}-2-methyl-benzoic Acid], the “Gastrin pKb” value was 8.74. The same measure, in the same setting: the value for `Cc1ccc(NC(=O)c2nc([C@@H]3CC4C=C[C@H]3C4)[nH]c2COC23CC4CC(CC(C4)C2)C3)cc1C(=O)O` [Example 290, endo-5-{[5-(Adamantan-1-yloxymethyl)-2-((1R,2R)-bicyclo[2.2.1]hept-5-en-2-yl)-1H-imidazole-4-carbonyl]-amino}-2-methyl-benzoic Acid] was 8.55. The same measure, in the same setting: the value for `O=C(O)c1cccc(NC(=O)c2nc([C@H]3CC4CC[C@H]3C4)[nH]c2COC23CC4CC(CC(C4)C2)C3)c1` [Example 291, endo-3-{[5-(Adamantan-1-yloxymethyl)-2-((1S,2S)-bicyclo[2.2.1]hept-2-yl)-1H-imidazole-4-carbonyl]-amino}-benzoic Acid] was 9.12; that for `O=C(O)c1cccc(NC(=O)c2nc([C@@H]3CC4CC[C@@H]3C4)[nH]c2COC23CC4CC(CC(C4)C2)C3)c1` [Example 292, endo-3-{[5-(Adamantan-1-yloxymethyl)-2-((1R,2R)-bicyclo[2.2.1]hept-2-yl)-1H-imidazole-4-carbonyl]-amino}-benzoic Acid] was 8.57.

In the case of `Cc1ccc(NC(=O)c2nc(C3C4CCC3CC4)[nH]c2COC23CC4CC(CC(C4)C2)C3)cc1C(=O)O` (centres unmarked) [Example 293, 5-{[5-(Adamantan-1-yloxymethyl)-2-bicyclo[2.2.1]hept-7-yl-1H-imidazole-4-carbonyl]-amino}-2-methyl-benzoic Acid], the Kb was 3.02 nM. Turning to `O=C(O)c1cccc(NC(=O)c2nc([C@@H]3CC4C=C[C@@H]3C4)[nH]c2COC23CC4CC(CC(C4)C2)C3)c1` [Example 294, exo-3-([5-(Adamantan-1-yloxymethyl)-2-((1S,2R)-bicyclo[2.2.1]hept-5-en-2-yl)-1H-imidazole-4-carbonyl]-amino}-benzoic Acid], the “Gastrin pKb” value is on record as 8.43. Same read-out and setting: next, `O=C(O)c1cccc(NC(=O)c2nc([C@H]3CC4C=C[C@H]3C4)[nH]c2COC23CC4CC(CC(C4)C2)C3)c1` [Example 295, exo-3-{[5-(Adamantan-1-yloxymethyl)-2-((1R,2S)-bicyclo[2.2.1]hept-5-en-2-yl)-1H-imidazole-4-carbonyl]-amino}-benzoic Acid]: 8.61.

These data come from patent US6479531B1, “Gastrin and cholecystokinin receptor ligands” (James Black Foundation Limited, priority 1998, dated 2002).
